Tests used:
[1] = tested on: larvae of the army worm (Spodoptera frugiperda); assay: Spodoptera Frugiperda Test; assay type: in vivo; conditions: active compound concentration 0.1%; dipped cabbage leaves; after 7 days
Protocol: Spodoptera Frugiperda Test
(§1) Solvent: 7 parts by weight of dimethylformamide
(§2) Emulsifier: 1 part by weight of alkylaryl polyglycol ether
To produce a suitable preparation of active compound, 1 part by weight of active compound is mixed with the stated amounts of solvent and emulsifier, and the concentrate is diluted with water to the desired concentration.
Cabbage leaves (Brassica oleracea) are treated by being dipped into the preparation of active compound of the desired concentration and are populated with larvae of the army worm (Spodoptera frugiperda) whilst the leaves are still moist.
After the desired period of time, the kill in % is determined. 100% means that all larvae have been killed; 0% means that none of the larvae has been killed.

[2] = tested on: Mosquito larvae (Aedes aegypti); assay: Aedes Test; assay type: in vivo; conditions: active compound concentration 0.0016%; after 4 hours
Protocol: Solvent: 1000 parts by weight of methanol
To produce a suitable preparation of active compound, 1 part by weight of active compound is mixed with the stated amount of solvent, and the concentrate is diluted with water to the desired concentrations.
Mosquito larvae (Aedes aegypti) are placed into the preparation of active compound of the desired concentration.
After the desired period of time, the effect on the larvae is determined.

[3] = tested on: black bean aphid (Aphis fabae); assay: Aphis Test (Systemic Action); assay type: in vivo; conditions: active compound concentration 0.01%, watering of Vicia faba, after 4 days
Protocol: Aphis Test (Systemic Action)
as §1, §2
(§3) To produce a suitable preparation of active compound, 1 part by weight of active compound is mixed with the stated amount of solvent, and the stated amount of emulsifier, and the concentrate is diluted with water to the desired concentration.
Bean plants (Vicia faba) which are heavily infested by the black bean aphid (Aphis fabae) are watered with in each case 20 ml of the preparation of active compound of the desired concentration so that the preparation of active compound penetrates into the soil without wetting the shoot. The active compound is taken up by the roots and passed on to the shoot.
(§4) After the desired period of time, the kill in % is determined. 100% means that all aphids have been killed; 0% means that none of the aphids has been killed.

[4] = tested on: eggs of the onion fly (Hylemyia antiqua); assay: Hylemyia Test; assay type: in vivo; conditions: active compound concentration 0.05%; artificial feed; after 7 days
Protocol: (§5) Solvent: 100 parts by weight of acetone
(§6) 1900 parts by weight of methanol
(§7) To produce a suitable preparation of active compound, 1 part by weight of active compound is mixed with the stated amount of solvent, and the concentrate is diluted with methanol to the desired concentration.
A stated amount of the preparation of active compound of the desired concentration is pipetted onto a standardized quantity of artificial feed. After the methanol has evaporated, about 20 eggs of the onion fly (Hylemyia antiqua) are placed on the feed.
After the desired period of time, the kill of the eggs or larvae in % is determined. 100% means that all animals have been killed; 0% means that none of the animals has been killed.

[5] = tested on: larvae of the green rice leaf-hopper (Nephotettix cincticeps); assay: Nephotettix Test; assay type: in vivo; conditions: active compound concentration 0.1%; dipped rice seedlings; after 6 days
Protocol: as §1, §2, §3
Rice seedlings (Oryza sativa) are treated by being dipped into the preparation of active compound of the desired concentration and are populated with larvae of the green rice leaf-hopper (Nephotettix cincticeps) while the seedlings are still moist.
After the desired period of time, the kill in % is determined. 100% means that all leaf-hoppers have been killed; 0% means that none of the leaf-hoppers has been killed.

[6] = tested on: mustard beetle larvae (Phaedon cochleariae); assay: Phaedon larvae Test; assay type: in vivo; conditions: active compound concentration 0.1%; dipped cabbage leaves; after 7 days
Protocol: as §1, §2
To produce a suitable preparation of active compound, 1 part by weight of active compound is mixed with the stated amount of solvent and the stated amount of emulsifier, and the concentrate is diluted with water to the desired concentration.
Cabbage leaves (Brassica oleracea) are treated by being dipped into the preparation of active compound of the desired concentration and are populated with mustard beetle larvae (Phaedon cochleariae) whilst the leaves are still moist.
After the desired period of time, the kill in % is determined. 100% means that all beetle larvae have been killed; 0% means that none of the beetle larvae has been killed.

[7] = tested on: larva (L2-L3) of the army worm (Spodoptera frugiperda); assay: Spodoptera Frugiperda Test/artificial Feed; assay type: in vivo; conditions: active compound concentration 0.05%; artificial feed; after 7 days
Protocol: Spodoptera Frugiperda Test/arfificial Feed
as §5, §6, §7
A stated amount of the preparation of active compound of the desired concentration is pipetted onto a standardized quantity of artificial feed. After the methanol has evaporated, in each case one larva (L2-L3) of the army worm (Spodoptera frugiperda) is placed onto the feed, in 3 repetitions.
After the desired period of time, the kill in % is determined. 100% means that all animals have been killed; 0% means that none of the animals has been killed.

Aphis fabae = assay: Critical Concentration Test/root-systemic Action; assay type: in vivo; conditions: 20 ppm in soil; broad beans; leaves populated after 7 days, evaluation after a further 6 days
Protocol: Critical Concentration Test/root-systemic Action
Solvent: 4 parts by weight of acetone
as §2
To produce a suitable preparation of active compound, 1 part by weight of active compound is mixed with the stated amount of solvent, the stated amount of emulsifier is added and the concentrate is diluted with water to the desired concentration.
The preparation of active compound is mixed intimately with soil. The concentration of the active compound in the preparation is virtually immaterial, only the amount by weight of active compound per volume unit of soil, which is stated in ppm (=mg/l), matters. The treated soil is filled into pots which are planted with pregerminated broad beans. Thus, the active compound can be taken up from the soil by the plant roots and transported into the leaves.
After a further 6 days, evaluation is carried out by counting or estimating the dead animals. The root-systemic action of the active compound is deduced from the number of animals killed. It is 100% when all test animals have been killed and 0% when the number of live test insects is identical to that of the untreated control.

[8] = not given; remark: listed apart in the source
Lucilia cuprina larvae = assay: Blowfly Larvae Test/development-inhibitory Action; assay type: in vivo; conditions: active compound concentration 100 ppm; flies hatched after 1.5 times the development period of untreated control
Protocol: Blowfly Larvae Test/development-inhibitory Action
Test animals: Lucilia cuprina larvae
Solvent: Dimethyl sulfoxide
20 mg of active compound are dissolved in 1 ml of dimethyl sulfoxide, more dilute concentrations are prepared by dilution with Dest.H2O.
About 20 Lucilia cuprina larvae are introduced into a test tube which contains about 1 cm^3 of horse meat and 0.5 ml of the preparation of active compound to be tested. After 24 hours and 48 hours, the effectiveness of the preparation of active compound is determined. The test tubes are transferred into beakers whose bottom is covered with sand. After a further 2 days, the test tubes are removed and the pupae are counted.
The effect of the preparation of active compound is assessed by the number of flies which have hatched after 1.5 times the development period of an untreated control. 100% means that no flies have hatched; 0% means that all flies have hatched normally.

[9] = tested on: peach aphid (Myzus persicae); assay: Myzus Test; assay type: in vivo; conditions: active compound concentration 0.1%; dipped cabbage leaves; after 6 days
Protocol: as §1, §2, §3
Cabbage leaves (Brassica oleracea) which are heavily infested by the peach aphid (Myzus persicae) are treated by being dipped into the preparation of active compound of the desired concentration.
as §4

SMILES | kill [1] | kill [5] | kill [6] | logP (pH = 2.3) [8] | kill [9] | also measured
CC(C)OCN1CCN(Cc2ccc(Cl)nc2)C1=NC#N | – | – | – | – | – | melting point: 85 to 87 °C
O=[N+]([O-])/N=c1\n(COCCBr)ccn1Cc1ccc(Cl)nc1 | – | – | – | – | – | melting point: 90 to 92 °C
CCCOCN1CCN(Cc2cnc(Cl)s2)C1=N[N+](=O)[O-] [Example 2, 1-(2-chloro-thiazol-5-yl-methyl)-2-nitroimino-3-n-propoxymethyl-imidazolidine] | 100% | – | – | – | – | –
CCOCN1CCN(Cc2ccc(Cl)nc2)C1=N[N+](=O)[O-] [Example 4] | – | 100% | 100% | – | – | kill [2]: 100%; kill [3]: 100%; kill of the eggs or larvae [4]: 100%; kill [7]: 100%; kill (root-systemic action) (Aphis fabae): 100%
CCCCCCCCOCN1CCN(Cc2ccc(Cl)nc2)C1=N[N+](=O)[O-] [Example 5] | – | – | – | 3.55 | – | kill [2]: 100%; kill [3]: 95%; kill (root-systemic action) (Aphis fabae): 100%
CCOCn1ccn(Cc2ccc(Cl)nc2)c1=N[N+](=O)[O-] [Example 6] | – | – | – | 1.09 | – | –
CCCCCCCCOCn1ccn(Cc2ccc(Cl)nc2)c1=N[N+](=O)[O-] [Example 7] | – | – | – | – | – | kill [2]: 100%
COCn1ccn(Cc2ccc(Cl)nc2)c1=N[N+](=O)[O-] [Example 9] | – | – | – | 0.78 | – | kill [3]: 100%; development-inhibitory effect (Lucilia cuprina larvae): 100%
CCCOCN1CCN(Cc2ccc(Cl)nc2)C1=N[N+](=O)[O-] [Example 10] | 100% | 100% | 100% | 1.64 | 100% | development-inhibitory effect (Lucilia cuprina larvae): 100%
CCCOCn1ccn(Cc2ccc(Cl)nc2)c1=N[N+](=O)[O-] [Example 11] | – | – | – | – | 100% | development-inhibitory effect (Lucilia cuprina larvae): 100%
CC(C)OCN1CCN(Cc2ccc(Cl)nc2)C1=N[N+](=O)[O-] [Example 12] | 100% | 100% | 100% | – | 100% | development-inhibitory effect (Lucilia cuprina larvae): 100%
CC(C)COCN1CCN(Cc2ccc(Cl)nc2)C1=N[N+](=O)[O-] [Example 13] | 100% | 100% | – | 2.00 | 100% | development-inhibitory effect (Lucilia cuprina larvae): 100%
CC(C)OCn1ccn(Cc2ccc(Cl)nc2)c1=N[N+](=O)[O-] [Example 14] | – | 100% | – | – | 100% | –
CC(C)COCn1ccn(Cc2ccc(Cl)nc2)c1=N[N+](=O)[O-] [Example 15] | – | 100% | – | – | 100% | –
COCN1CCN(Cc2cnc(Cl)s2)C1=N[N+](=O)[O-] [Example 16] | – | – | – | 1.14 | 100% | –
CCOCN1CCN(Cc2cnc(Cl)s2)C1=N[N+](=O)[O-] [Example 17] | 100% | – | 100% | 1.40 | 100% | –
CC(C)OCN1CCN(Cc2cnc(Cl)s2)C1=N[N+](=O)[O-] [Example 18] | 100% | 100% | 100% | 1.65 | 100% | –
CC(C)COCN1CCN(Cc2cnc(Cl)s2)C1=N[N+](=O)[O-] [Example 19] | – | 100% | 100% | 2.12 | – | –

SMILES | kill [1] | kill [5] | kill [6] | logP (pH = 2.3) [8] | kill [9] | also measured
CC(C)(C)COCN1CCN(Cc2ccc(Cl)nc2)C1=N[N+](=O)[O-] [Example 20] | 100% | – | – | – | 100% | –
CCC(C)OCN1CCN(Cc2ccc(Cl)nc2)C1=N[N+](=O)[O-] (centres unmarked) [Example 21] | – | 100% | 100% | 1.86 | – | –
CCCCCOCN1CCN(Cc2ccc(Cl)nc2)C1=N[N+](=O)[O-] [Example 22] | – | – | – | 2.35 | – | –
CCCCCCOCN1CCN(Cc2ccc(Cl)nc2)C1=N[N+](=O)[O-] [Example 23] | – | – | – | 2.73 | – | –
COCCOCN1CCN(Cc2ccc(Cl)nc2)C1=N[N+](=O)[O-] [Example 24] | – | 100% | – | 1.16 | – | –
CC(C)(C)C(=O)OCN1CCN(Cc2ccc(Cl)nc2)C1=N[N+](=O)[O-] [Example 25] | 100% | 100% | 100% | – | 100% | –
COCN1CCN(Cc2ccc(Cl)nc2)C1=NC#N [Example 29] | – | – | – | 1.32 | – | –
COCCOCN1CCN(Cc2ccc(Cl)nc2)C1=NC#N [Example 31] | – | – | – | 1.40 | – | –
CCCOCN1CCN(Cc2ccc(Cl)nc2)C1=NC#N [Example 32] | – | – | – | 1.89 | – | –
CC(=O)OCN1CCN(Cc2ccc(Cl)nc2)C1=N[N+](=O)[O-] [Example 33] | 100% | 100% | 100% | – | – | –
CCC(=O)OCN1CCN(Cc2ccc(Cl)nc2)C1=N[N+](=O)[O-] [Example 35] | 100% | – | 100% | 1.50 | – | –
CC(C)C(=O)OCN1CCN(Cc2ccc(Cl)nc2)C1=N[N+](=O)[O-] [Example 36] | 100% | 100% | 100% | – | 100% | –
CCCCOCN1CCN(Cc2ccc(Cl)nc2)C1=N[N+](=O)[O-] [Example 40] | – | – | – | 1.98 | – | –
CCCCOCn1ccn(Cc2ccc(Cl)nc2)c1=N[N+](=O)[O-] [Example 41] | – | – | – | 1.72 | – | –
CCN(CC)CCOCN1CCN(Cc2ccc(Cl)nc2)C1=N[N+](=O)[O-] [Example 43] | – | – | – | 0.70 | – | –
O=[N+]([O-])N=C1N(COCCBr)CCN1Cc1ccc(Cl)nc1 [Example 53] | – | – | – | 1.64 | – | –
CC(C)OCN1CCCN(Cc2ccc(Cl)nc2)C1=N[N+](=O)[O-] [Example 56] | – | – | – | 1.34 | – | –

Reference: patent US6503912B1, “Substituted guanidine derivatives” (Bayer Aktiengesellschaft, priority 1998, dated 2003)
